The source of these data is patent US20090239827A1, “COMPOUNDS HAVING LIPID LOWERING PROPERTIES” (priority 2005, published 2009).

“And” between values parts separate entries of the source, which are not always exact repeats. Equal entries are not always repeated.

The test system of assay [1] is APOE deficient mice. Description: Example 2: plasma lipid levels in APOE deficient mice, compound in feed, induction and challenge phases. The assay is classed as in vivo, mouse. The procedure:
(§1) This example evaluated the effects of a tocopheryl phosphate mixture (TPm) (mono-tocopheryl phosphate and di-tocopheryl phosphate) on the development of atherosclerotic lesions in male APOE deficient mice.
(§2) Twenty-eight mice were divided into 4 groups: 2 control groups, a tocopherol acetate (TA) group (150 mg TA/kg feed) and a TPm group (200 mg TPm/kg feed containing 7% fat).
‘Induction phase’—The induction phase consisted of the first 16 weeks of the treatment period.
‘Challenge phase’—This phase consisted of the final 8 weeks of the treatment period.
The 4 groups of animals were placed on the diet regimes outlined in the table below:
Of the two control animal groups only one was placed on the SF04-055, HFHC diet, while the other control group was maintained on the SF05-040 mouse pellet diet (only 7% fat) for the entire treatment period 24 week treatment period (C24). […] TA treated mice were fed pellets with 150 mg TA/kg feed and TPm treated mice were fed the pellets with 200 mg TPm/kg feed. […] The 26 mg/kg TPm dose was calculated to be the tocopherol equivalent to the TA dose.

For assay [2], the system named is APOE deficient mice. Description: Example 2: aortic atheromatous lesion area by Oil red O staining in APOE deficient mice. To be noted: end of the 24 week treatment period. It counts as in vivo, mouse. The procedure: as §1, §2
‘Induction phase’—The induction phase consisted of the first 16 weeks of the treatment period. During this period the animals were fed a mouse pellet diet low in vitamin E (containing less than 20 mg vitamin E per kg food, with a 7% total fat; modified version of the standard AIN93G rodent diet (SF05-040, Specialty feeds, Glen Forrest, Wash. Australia). Control animals were fed the diet alone, while TA-feed contained 150 mg TA/kg feed and TPm-feed contained 200 mg TPm/kg feed. These feeds delivered on average doses of 21 and 26 mg/kg body weight, respectively. The 26 mg/kg TPm dose was calculated to be the tocopherol equivalence of the TA dose. […]
Of the two control animal groups only one was placed on the SF04-055, HFHC diet, while the other control group was maintained on the SF05-040 mouse pellet diet (only 7% fat) for the entire treatment period 24 week treatment period (C24). […] The 26 mg/kg TPm dose was calculated to be the tocopherol equivalent to the TA dose. […]

[3] abbreviates: Challenge phase (HFHC diet), week 24, TA 150 mg/kg feed, TPm 200 mg/kg feed.
Where [4] appears, read: Induction phase, week 16, TA 150 mg/kg feed, TPm 200 mg/kg feed.

Turning to `CC(=O)Oc1c(C)c(C)c2c(c1C)CCC(C)(CCC[C@H](C)CCC[C@H](C)CCCC(C)C)O2` (stereo partly drawn) [TA, Tocopherol Acetate], in the assay with APOE deficient mice [1] (Baseline, week 0), the “LDL-C level (mean ± SD)” value came out at 8.85 ± 1.66 mmol/L, the “total cholesterol level (mean ± SD)” value was 12.75 ± 1.41 mmol/L and the “triglyceride level (mean ± SD)” value is listed as 1.75 ± 0.25 mmol/L. For the same compound, in the assay on APOE deficient mice [1] (setting [3]), the “LDL-C level (mean ± SD)” value is 18.98 ± 2.29 mmol/L, the “total cholesterol level (mean ± SD)” value was found to be 47.13 ± 4.44 mmol/L and the “triglyceride level (mean ± SD)” value turned out to be 2.23 ± 0.29 mmol/L. In the assay with APOE deficient mice [1] (setting [4]), the “LDL-C level (mean ± SD)” value is on record as 6.51 ± 0.71 mmol/L, the “total cholesterol level (mean ± SD)” value was 14.47 ± 1.32 mmol/L and the “triglyceride level (mean ± SD)” value is reported as 1.30 ± 0.22 mmol/L. Moreover, the “reduction in plasma lipid levels” value in the assay on APOE deficient mice [1] (after the challenge phase (week 24)) is on record as “no significant reduction”. The “reduction in aortic lesion area / lesion formation compared to control mice on the same diet regime” value in the assay on APOE deficient mice [2] is on record as 12%. Besides, the “Atheromatous lesion area, % Lesion coverage (mean ± SD)” value with APOE deficient mice [2] (HFHC diet final 8 weeks) is 9.4% and 9.4 ± 1.1%.
